Measurements from article PMC8261488, “Contraceptive progestins with androgenic properties stimulate breast epithelial cell proliferation” (EMBO Molecular Medicine, 2021).

Key:
[1] = tested on: Rankl; assay: Rankl transcript levels by RT-PCR in mouse mammary organoids stimulated ex vivo; format: cell-based
[2] = tested on: Wnt4; assay: Wnt4 transcript levels by RT-PCR in mouse mammary organoids stimulated ex vivo; format: cell-based
[3] = tested on: endogenous hormone levels in mice; assay: Endogenous steroid hormone plasma levels in treated host mice by LC-MS; format: in vivo, mouse; settings: xenografted NSG females with pellets
Excerpt: Next, we assessed whether progesterone and progestins differentially affected endogenous hormone levels in mice. Plasma 17‐β‐estradiol levels were not affected by any of the treatments (Fig 4H). […] Plasma testosterone levels were not altered by any treatment with the exception of DSP, which decreased them (Fig 4H). Thus, prolonged exposures to progestins differentially affect endogenous progesterone plasma levels and DSP decreases testosterone plasma levels in host mice.

[4] = tested on: KLK3; assay: KLK3 mRNA in xenografted HBECs by RT-PCR with human-specific primers; format: in vivo; settings: 3 weeks of treatment (Fig 5H)
Excerpt: Consistent with AR and PR sharing a common hormone response element (Claessens et al, 1996), KLK3 was induced upon progestin stimulation. […] This is in agreement with previous findings that KLK3 expression is under the control of both androgens and progestins in T47D cells (Zarghami et al, 1997).
(§1) Next, we sought for a readout of in vivo cell proliferation different from radiance. […] Given that MKI67 expression could replace the luciferase measurements as a readout, we used a modified experimental setup for a second round of experiments. We derived HBECs from viably frozen mammoplasty samples (Appendix Table S3) and engrafted them to different mammary glands of NSG females without viral infection. Four months later, the 24 recipient females, each engrafted with 5 different mammoplasties received pellets containing either vehicle, progesterone, or 1 of 6 progestins for 21 days. At sacrifice, xenografted glands were histologically sectioned and cell proliferation was quantified using co‐IF with anti‐MKI67 and anti‐hECAD antibodies. For one of the mammoplasties, we were able to obtain measurements for all experimental conditions (Fig 5I). […] For the remaining mammoplasties, between 3 and 8 different experimental conditions were successfully quantified (Appendix Table S4). […] CPA (P < 0.0001) decreased proliferation, whereas CMA and DSP had no effect (Fig 5K). As AR signaling increases AR protein levels, we performed co‐IF for AR and hECAD as another means to assess AR signaling activity.
Human breast microstructures and mouse organoids were homogenized in Trizol (Invitrogen). Aqueous phase containing RNA was chloroform extracted and processed with miRNeasy extraction kit (Qiagen). cDNA was synthesized using random p(dN)6 primers (Roche) and MMLV reverse transcriptase (Invitrogen). SYBR Green PCR Core Reagent System (Qiagen) was used for semi‐quantitative real time (RT‐PCR) using the following primers.

[5] = tested on: HBECs; assay: MKI67/Ki67 expression in xenografted HBECs; format: in vivo, human; settings: 21 days pellets; for cell proliferation (KI67 and hECAD double+ cells), overall analysis: HBECs from 11 different patients; for cell proliferation (KI67 and hECAD double+ cells): one mammoplasty (M310)
Excerpt: as §1
(§2) Tissues were fixed for 2 h at room temperature in 4% paraformaldehyde and paraffin‐embedded. Dewaxed and rehydrated paraffin sections were pretreated in 10 mM Na citrate (pH 6.0) at 95° for 20 min. Blocking was performed with 1% BSA for 60 min. Primary antibodies used were as follows: Ki67 (rabbit α‐Ki67, clone Sp6, Spring Amsbio, dilution 1:200), ER (rabbit α‐ER, clone Sp1, Zytomed RTU), PR (rabbit α‐PR, clone 1E2, Ventana RTU), AR (rabbit α‐AR, clone SP107, Thermo Fisher, diluted 1:200), CK7 (rabbit α‐CK7, clone Sp52, Abcam, diluted 1:500), CK19 (mouse KS19.2 (Z105.6), American Research Products Inc. (diluted 1:50), and mouse α‐ECAD (clone G‐10, sc‐8426, diluted 1:100). For IHC, chromogenic revelation was performed with ChromoMap DAB kit (Roche Diagnostics, Switzerland) and sections were counterstained with Mayer’s hematoxylin. For fluorescence microscopy, nuclei were counterstained with DAPI (Sigma). IHC for ER, PR, and AR was performed on Discovery Ventana ULTRA (44). IHC images were acquired on Leica DM 2000 with Leica DFC450 C camera. IF images were acquired on Zeiss LSM700 confocal microscope. Slides were scanned with Olympus VS120‐L100 slide scanner with 20×/0.75 objective and Pike F505 C Color camera. Images were loaded into QuPath using the BioFormats extension (Bankhead et al, 2017).

[6] = tested on: HBECs; assay: In vivo growth of HBEC xenografts treated with LNG with or without enzalutamide; set-up: species or system human; settings: 3 PDXs, radiance
Method: Mice were anesthetized by intraperitoneal injection with 10 mg/kg xylazine and 90 mg/kg ketamine (Graeub) and injected intraductally with 10 μl cell suspension per gland. […] After 3–10 weeks, when bioluminescence from individual glands reached 10^7 total flux (p/s/cm2/sr), animals were assigned to different treatment groups and hormone pellets implanted subcutaneously. Enzalutamide (Selleckchem, Catalog No. S1250) dissolved in 15% DMSO in PEG300 was injected intraperitoneally 3 times/week at 30 mg/kg.

[7] = tested on: AR; assay: In vivo growth of LNG-treated HBEC xenografts transduced with shAR or sh scramble; set-up: species or system human; settings: within 60 days
Excerpt: To further test the requirement for AR in the context of progestin‐driven proliferation, we took a genetic approach and down modulated AR expression in freshly isolated HBECs using a GFP‐luciferase2‐shAR or GFP‐luciferase2‐sh scramble expressing lentivirus. […] Double IF with anti‐GFP and anti‐AR antibodies and analysis by image quantification confirmed the down regulation of AR protein levels in the shAR infected cells identified based on GFP co‐expression (Fig 7E and F).

[8] = tested on: human breast epithelium; settings: female, mouse, in vivo, 8 months
Method: All the engrafted glands were processed for histological analysis and H&E stained.
(§3) Mice were anesthetized by intraperitoneal injection with 10 mg/kg xylazine and 90 mg/kg ketamine (Graeub) and injected intraductally with 10 μl cell suspension per gland. Bioluminescence imaging was performed as described (Sflomos et al, 2016). After 3–10 weeks, when bioluminescence from individual glands reached 10^7 total flux (p/s/cm2/sr), animals were assigned to different treatment groups and hormone pellets implanted subcutaneously. Enzalutamide (Selleckchem, Catalog No. S1250) dissolved in 15% DMSO in PEG300 was injected intraperitoneally 3 times/week at 30 mg/kg.

[9] = tested on: HBECs; assay: MKI67/Ki67 expression in xenografted HBECs; format: in vivo, human; settings: 3 weeks of treatment, at endpoint
[10] = tested on: AR; set-up: method as in earlier work; settings: various assays, ref Fuhrmann et al, 1995, Muhn et al, Bouchard, 2005, Mishell, 2008, Schneider et al, 2009, Africander et al, 2011, Louw‐du Toit et al, 2017; cited from earlier work
[11] = tested on: women; settings: cited from earlier work
[12] = tested on: HBECs; assay: In vivo growth of intraductal HBEC xenografts measured by radiance
Excerpt: To compare the effects of progesterone and different progestins on HBECs in vivo, we infected single cell suspensions obtained from fresh reduction mammoplasty specimens with GFP‐luciferase2‐expressing lentiviruses. The infected cell mixture was grafted intraductally to up to 5 glands of as many recipients as possible. The engraftment and growth of the xenografted cells were monitored weekly by in vivo imaging. When radiance reached > 10E07 on average per mammary gland, 60‐day‐release pellets were implanted subcutaneously, usually within 3–10 weeks after cell injection. At sacrifice, blood was collected and plasma levels of the administered compounds as well as endogenous steroid hormones were determined by liquid chromatography‐mass spectrometry (LC‐MS) (Laszlo et al, 2019).
Next, the in vivo growth of HBEC xenografts stimulated with progesterone or different progestins was analyzed. […] In addition, the fold change radiance of treated versus untreated samples at endpoint was calculated (Fig 5A–C).
as §3
Pellets were prepared by mixing the required amount of part A, MP3745/E81949 and part B, MP3744/E81950 of low consistency silicon elastomer (MED‐4011) and hormone powder to homogeneity. Mix was transferred to a syringe and incubated at 37°C overnight. The silicon‐hormone mass was removed from the syringe and cut to pieces, as described (Duss et al, 2007). The original protocol was adapted for different doses as described below.

[13] = tested on: human breast tissue microstructures (EpCAM+ cells); assay: RNA sequencing of EpCAM+ cells from human breast tissue microstructures stimulated ex vivo; format: cell-based; settings: 14–18 h exposure, n = 3
Excerpt: Having ascertained with mammary tissue from inbred mice that androgenic and anti‐androgenic progestins have different effects on the expression of important PR target genes, we set out to assess the transcriptional response to PR signaling in the human breast epithelium. In view of our goal to perform in vivo experiments with the natural ligand progesterone, we compared the effects of progesterone to those of its stable analog R5020 which is commonly used for in vitro experiments on breast epithelial cells. For this, we used an ex vivo approach with human breast tissue similar to the mouse organoid technique used above that maintains hormone responsiveness (Tanos et al, 2013; Sflomos et al, 2015). In brief, 3 fresh mammoplasty tissue from women with follicular phase progesterone levels were cut into 1 mm^3 pieces and aliquoted for digestion with collagenase and concomitant exposure to either vehicle, R5020, or progesterone for 14–18 h. Tissue microstructures that contain epithelial cells, immune cells, and fibroblasts in varying proportions were recovered. To reduce interpatient variation as far as it relates to different ratios of various cell types, at the end of the treatment, the tissue microstructures were dissociated to single cells and enriched for epithelial cells by FACS sorting with antibodies against the epithelial cell surface marker EpCAM (Fig 2A). The EpCAM^+ cells were processed for RNA sequencing. […] Progesterone affected expression levels of 65 genes, whereas R5020 affected 112 genes, including RANKL (adj.P < 0.05) (Appendix Fig S2A). More than 90% of the progesterone‐induced gene expression changes were induced by R5020 (Fig 2C). […] R5020 induced higher‐fold changes as indicated by the estimated slope of the curve being > 1 (P < 0.0001). […]
All experiments conformed to the principles set out in the WMA Declaration of Helsinki and the Department of Health and Human Services Belmont Report. […] Human tissue samples were mechanically and enzymatically dissociated, single cells were prepared, counted, and spin infected using Lenti‐ONE CMV‐GFP(2A)Luc2 WPRE VSV, V621004001, or pR980 Luc2GFP (GEGTECH) at a multiplicity of infection of 1 at 2.500 rpm for 3 h at room temperature in 500 μl of serum‐free medium. […]
RNAseq libraries were prepared using Truseq Stranded RNA producing single‐end reads of 100 bp and sequenced on Illumina Hiseq 2500 instrument. […]
Sequencing reads were quality controlled using FastQC (v0.11.8) (Wingett & Andrews, 2018). Mouse raw reads were aligned to the mouse genome (mm9) and human raw reads to the human genome (hg19) using TopHat (v2.0.11) (Kim et al, 2013). […]

[14] = tested on: AR; assay: Percentage of AR+ cells in xenografted HBECs by co-IF for AR and hECAD; format: in vivo, human; settings: 21 days pellets, HBECs from 11 different patients
Excerpt: as §1, §2

[15] = NSG, mouse, in vivo
Method: At sacrifice, blood was collected and plasma levels of the administered compounds as well as endogenous steroid hormones were determined by liquid chromatography‐mass spectrometry (LC‐MS) (Laszlo et al, 2019).
Plasma steroid concentrations were measured by LC–MS High Resolution (Q‐Executive, Thermo Fisher Scientific) for testosterone, progesterone, and 17β‐estradiol as described in (Cagnet et al, 2018) and for progestins as described in (Laszlo et al, 2019).

[16] = BalbC females, 6 h of stimulation
[17] = BalbC-derived organoids, 24 h of stimulation
[18] = 60 days of treatment, subcutaneous pellets

## C#C[C@]1(O)CC[C@H]2[C@@H]3CCC4=CC(=O)CC[C@@H]4[C@H]3CC[C@@]21CC [LNG, levonorgestrel]
[1]; [16]
  Rankl transcript levels over vehicle-treated control: 27.7 fold
[1]; [17]
  Rankl transcript induction: 253.9 fold
[1]; C57Bl/6 mice, 6 h, 20 nM
  Rankl transcript induction: 21.6 fold
[2]; [16]
  Wnt4 transcript levels over vehicle-treated control: 4.8 fold
[2]; [17]
  Wnt4 transcript induction: 36.3 fold
[2]; C57Bl/6 mice, 6 h, 20 nM
  Wnt4 transcript induction: 4.3 fold
[3]
  endogenous progesterone plasma levels (estrous cycle-related variation): did not affect
[4]
  KLK3 transcript expression: increased
[5]
  cell proliferation (KI67 and hECAD double+ cells), overall analysis: increased
  cell proliferation (KI67 and hECAD double+ cells): significantly increased
[6]
  proliferation rates of PDXs upon LNG exposure: increased the proliferation rates in 2 of 3 PDXs
[7]
  reduction of LNG-induced radiance by down regulation of AR expression (shAR): 22%
[8]
  morphologic changes in xenografts (H&E): 3 or 4 grafts showed diffuse and in some cases marked acinar proliferation
[9]
  MKI67 expression at mRNA level: increased
  MKI67 expression at protein level: increased
[10]
  androgenic / anti-androgenic activity: androgenic activity
[11]; women taking androgenic progestins, ref Rossouw et al, 2002
  breast cancer risk: elevated breast cancer risk
[11]; women, ref Hunter et al, 2010
  RR of breast cancer: 3.05
  lobular breast cancer risk compared to the general population: 1.45
[11]; women, ref Soini et al, 2016
  RR for ductal breast cancer: 1.20
[12]; 3 weeks of treatment, mammoplasty M354
  cell proliferation by radiance measurements: stimulated cell proliferation
[12]; [18]
  growth (course of radiance) of engrafted HBECs versus control: increased growth

## CC(=O)[C@H]1CC[C@H]2[C@@H]3CCC4=CC(=O)CC[C@]4(C)[C@H]3CC[C@]12C [progesterone]
[13]
  RANKL expression (variant stabilized gene expression values): increased expression
  WNT4 expression (variant stabilized gene expression values): increased expression
[5]
  cell proliferation (KI67 and hECAD double+ cells), overall analysis: increased
  cell proliferation (KI67 and hECAD double+ cells): significantly increased
[14]
  percentage of AR+ cells (AR index): decreased
[15]
  plasma progesterone relative to average levels in control mice: 4.9 times
[11]
  association with breast cancer risk: not associated with breast cancer risk
[12]; [18]
  growth (course of radiance) of engrafted HBECs versus control: increased
  relative radiance at endpoint over control (FC): 1.3 fold
